# According to US6500865B1, “Sulfonamide derivatives” (Eli Lilly and Company, priority 1998, dated 2002):
# Target: T1, human GluR4B receptor (Homo sapiens, UniProt P48058)
# T1 construct: expressed in transfected cells
# Test: potentiation of agonist-induced excitability of human GluR4B receptor expressed in HEK 293 cells
# Type: cell-based
# Conditions: human GluR4B expressed in HEK 293 cells; qualitative statement
# From the text: The ability of compounds of formula I to potentiate glutamate receptor-mediated response may be determined using fluorescent calcium indicator dyes (Molecular Probes, Eugene, Oreg., Fluo-3) and by measuring glutamate-evoked efflux of calcium into GluR4 transfected HEK293 cells, as described in more detail below.
# In one test, 96 well plates containing confluent monolayers of HEK cells stably expressing human GluR4B (obtained as described in European Patent Application Publication Number EP-A1-583917) are prepared. The tissue culture medium in the wells is then discarded, and the wells are each washed once with 200 μl of buffer (glucose, 10 mM, sodium chloride, 138 mM, magnesium chloride, 1 mM, potassium chloride, 5 mM, calcium chloride, 5 mM, N-[2-hydroxyethyl]-piperazine-N-[2-ethanesulfonic acid], 10 mM, to pH 7.1 to 7.3). […]
# Each test is then performed as follows. […] A second fluorescent reading is taken after 5 minutes incubation. 15 μl of 400 μM glutamate solution is then added to each well (final glutamate concentration 100 μM), and a third reading is taken. The activities of test compounds and cyclothiazide solutions are determined by subtracting the second from the third reading (fluorescence due to addition of glutamate in the presence or absence of test compound or cyclothiazide) and are expressed relative to enhance fluorescence produced by 100 μM cyclothiazide.
# T1 sequence (P48058 21-902): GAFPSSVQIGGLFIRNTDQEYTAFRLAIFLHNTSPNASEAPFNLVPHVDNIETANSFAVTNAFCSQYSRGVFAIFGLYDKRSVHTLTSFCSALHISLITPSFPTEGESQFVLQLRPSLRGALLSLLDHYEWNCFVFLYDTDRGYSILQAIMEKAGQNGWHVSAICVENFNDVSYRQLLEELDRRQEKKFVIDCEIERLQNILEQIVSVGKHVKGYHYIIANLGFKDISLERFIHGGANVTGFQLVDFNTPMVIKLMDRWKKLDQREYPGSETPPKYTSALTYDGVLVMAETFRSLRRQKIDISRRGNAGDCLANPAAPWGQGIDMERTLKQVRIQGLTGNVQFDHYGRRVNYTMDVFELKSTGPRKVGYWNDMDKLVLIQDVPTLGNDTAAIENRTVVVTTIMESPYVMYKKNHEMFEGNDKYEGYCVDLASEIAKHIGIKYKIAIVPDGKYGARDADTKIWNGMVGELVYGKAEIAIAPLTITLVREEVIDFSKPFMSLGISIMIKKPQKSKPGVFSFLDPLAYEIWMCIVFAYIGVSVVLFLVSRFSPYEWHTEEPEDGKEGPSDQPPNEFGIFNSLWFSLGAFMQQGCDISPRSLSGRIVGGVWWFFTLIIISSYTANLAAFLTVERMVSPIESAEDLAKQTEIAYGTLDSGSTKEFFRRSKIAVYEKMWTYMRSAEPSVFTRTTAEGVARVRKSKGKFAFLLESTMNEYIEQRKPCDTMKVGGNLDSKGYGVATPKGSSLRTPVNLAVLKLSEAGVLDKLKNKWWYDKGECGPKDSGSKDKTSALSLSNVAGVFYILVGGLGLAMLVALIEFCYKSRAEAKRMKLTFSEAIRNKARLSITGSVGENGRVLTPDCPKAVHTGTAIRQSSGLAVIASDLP
smiles,measurement,value
NS(=O)(=O)c1cc2c(cc1Cl)NC(C1CC3C=CC1C3)NS2(=O)=O (stereo not shown) [cyclothiazide],potentiation of agonist-induced excitability of human GluR4B receptor,potentiate
